PMC4496667, “Large-scale Direct Targeting for Drug Repositioning and Discovery” (Scientific Reports, 2015)
“And” between values parts separate entries of the source, which are not always exact repeats. Equal values may be shown once. Read-outs that look alike come from different tables or passages of the source.

Columns and labels:
REN = target: T1, REN (Homo sapiens, UniProt P00797); assay: Renin Inhibitor Screening Assay Kit (REN); type: biochemical; settings: target REN; mean ± SD of three independent repeats, Bliss method, eight data points
T1 construct: purchased Cayman Chemical
T1 sequence (P00797 67-406): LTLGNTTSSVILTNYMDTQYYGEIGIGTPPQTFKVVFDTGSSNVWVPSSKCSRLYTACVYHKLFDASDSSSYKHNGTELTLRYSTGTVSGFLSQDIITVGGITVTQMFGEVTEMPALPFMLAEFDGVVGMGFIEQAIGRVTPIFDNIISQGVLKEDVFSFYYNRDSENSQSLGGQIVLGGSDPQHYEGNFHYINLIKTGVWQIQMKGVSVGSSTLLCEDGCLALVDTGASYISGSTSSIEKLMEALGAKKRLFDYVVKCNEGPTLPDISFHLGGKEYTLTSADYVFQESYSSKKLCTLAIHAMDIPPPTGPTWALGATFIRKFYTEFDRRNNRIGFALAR
Experimental: (§1) To validate the practicability of WES model, we randomly selected Enpp2, Faah, PTGS2, PPARG, and REN, the five inflammation-related targets, and predicted their direct ligand-target interactions. The 24 top-scoring (hybrid-WES) and commercially available drug-target interactions (Table 3) were tested by the ligand-binding assays.
(§2) Enpp2 (Autotaxin Inhibitor Screening Assay Kit), Faah (FAAH Inhibitor Screening Assay Kit), PTGS2 (COX Inhibitor Screening Assay Kit), PPARG (PPARγ Ligand Screening Assay Kit), and REN (Renin Inhibitor Screening Assay Kit) were purchased from Cayman Chemical, Ann Arbor, MI, USA. […] The activity of targets was detected according to manufacturer’s instructions. IC50 values were determined using the Bliss method according to the eight data points per drug. The same drug-target interaction was repeated independently three times to obtain a mean IC50 value and its standard deviation.

PPARG = target: T2, PPARG (Homo sapiens, UniProt P37231); assay: PPARγ Ligand Screening Assay Kit (PPARG); type: binding; settings: target PPARG; mean ± SD of three independent repeats, Bliss method, eight data points
T2 sequence (P37231 1-505): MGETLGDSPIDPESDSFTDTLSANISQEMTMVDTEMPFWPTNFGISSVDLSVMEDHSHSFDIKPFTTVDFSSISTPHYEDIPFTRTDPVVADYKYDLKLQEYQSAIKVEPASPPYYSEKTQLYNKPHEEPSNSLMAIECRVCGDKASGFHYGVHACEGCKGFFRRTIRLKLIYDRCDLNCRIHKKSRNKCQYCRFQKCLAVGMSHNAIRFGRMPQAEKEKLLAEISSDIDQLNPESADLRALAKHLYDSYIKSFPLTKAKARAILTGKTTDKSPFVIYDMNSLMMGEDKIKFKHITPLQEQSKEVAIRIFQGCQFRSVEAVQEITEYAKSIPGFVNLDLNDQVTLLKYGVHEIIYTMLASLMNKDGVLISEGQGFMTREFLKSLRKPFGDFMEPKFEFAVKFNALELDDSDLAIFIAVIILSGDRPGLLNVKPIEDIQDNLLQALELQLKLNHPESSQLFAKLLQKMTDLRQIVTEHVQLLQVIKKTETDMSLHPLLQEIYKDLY
Experimental: as §1, §2

PTGS2 = target: T3, PTGS2 (Homo sapiens, UniProt P35354); assay: COX Inhibitor Screening Assay Kit (PTGS2); type: biochemical; settings: target PTGS2; mean ± SD of three independent repeats, Bliss method, eight data points
T3 construct: purchased Cayman Chemical
T3 sequence (P35354 18-604): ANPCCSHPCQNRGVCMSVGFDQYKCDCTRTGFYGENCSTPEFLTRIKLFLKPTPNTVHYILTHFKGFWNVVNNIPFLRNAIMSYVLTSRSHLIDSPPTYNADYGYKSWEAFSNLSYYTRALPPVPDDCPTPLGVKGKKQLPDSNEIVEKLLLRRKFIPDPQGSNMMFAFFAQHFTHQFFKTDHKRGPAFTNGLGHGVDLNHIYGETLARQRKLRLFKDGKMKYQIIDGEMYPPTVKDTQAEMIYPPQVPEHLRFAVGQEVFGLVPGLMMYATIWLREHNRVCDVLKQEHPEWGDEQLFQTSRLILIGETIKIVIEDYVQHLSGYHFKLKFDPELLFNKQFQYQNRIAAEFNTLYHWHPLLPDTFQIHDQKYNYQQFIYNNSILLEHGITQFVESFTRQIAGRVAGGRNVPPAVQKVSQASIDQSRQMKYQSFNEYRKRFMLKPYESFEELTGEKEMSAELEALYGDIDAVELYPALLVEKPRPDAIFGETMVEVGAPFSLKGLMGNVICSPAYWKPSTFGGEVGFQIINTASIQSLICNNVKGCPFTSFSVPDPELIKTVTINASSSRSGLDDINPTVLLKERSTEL
Experimental: as §1, §2

Enpp2 = target: T4, Enpp2 (Homo sapiens, UniProt Q13822); assay: Autotaxin Inhibitor Screening Assay Kit (Enpp2); type: biochemical
T4 construct: purchased Cayman Chemical
Experimental: as §1, §2

Faah = target: T5, Faah (Homo sapiens, UniProt O00519); assay: FAAH Inhibitor Screening Assay Kit (Faah); type: biochemical; settings: target Faah; mean ± SD of three independent repeats, Bliss method, eight data points
T5 construct: purchased Cayman Chemical
T5 sequence (O00519 1-579): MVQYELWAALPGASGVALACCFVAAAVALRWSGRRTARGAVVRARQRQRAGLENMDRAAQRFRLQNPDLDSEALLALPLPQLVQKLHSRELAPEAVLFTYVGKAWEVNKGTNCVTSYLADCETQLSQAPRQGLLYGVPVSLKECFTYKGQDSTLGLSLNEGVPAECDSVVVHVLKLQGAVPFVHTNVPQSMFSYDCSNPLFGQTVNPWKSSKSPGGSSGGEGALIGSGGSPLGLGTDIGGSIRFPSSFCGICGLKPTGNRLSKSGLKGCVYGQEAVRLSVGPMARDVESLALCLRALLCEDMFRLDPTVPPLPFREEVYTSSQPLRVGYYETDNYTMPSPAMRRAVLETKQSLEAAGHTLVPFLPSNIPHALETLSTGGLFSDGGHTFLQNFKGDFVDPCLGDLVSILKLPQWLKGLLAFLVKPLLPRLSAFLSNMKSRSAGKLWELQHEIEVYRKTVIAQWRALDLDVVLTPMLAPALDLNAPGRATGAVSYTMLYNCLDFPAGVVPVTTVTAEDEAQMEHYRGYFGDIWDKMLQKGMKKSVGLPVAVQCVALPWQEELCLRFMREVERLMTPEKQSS
Experimental: as §1, §2

[1] = target Enpp2, mean ± SD of three independent repeats, Bliss method, eight data points, read-out: IC50 (μM):mean ± SD

CC(C)(C)NC(=O)[C@@H]1CN(Cc2cccnc2)CCN1C[C@@H](O)C[C@@H](Cc1ccccc1)C(=O)N[C@H]1c2ccccc2C[C@H]1O [Indinavir]
IC50 (REN): 44.3 ± 12.1 µM

COC(=O)CCc1ccc(OCC(O)CNC(C)C)cc1 (stereo not drawn) [Esmolol]
IC50 (PPARG): 40.8 ± 6.5 µM

Cc1c(C(=O)NN2CCCCC2)nn(-c2ccc(Cl)cc2Cl)c1-c1ccc(Cl)cc1 [Rimonabant]
IC50 (PTGS2): 138 ± 3.5 µM

CCCCCCCCc1ccc(CCC(N)(CO)CO)cc1 [Fingolimod]
IC50 (Enpp2; [1]): 115 ± 5.8 µM

CCCCC[C@H](O)CC[C@@H]1[C@H]2Cc3cccc(OCC(=O)O)c3C[C@H]2C[C@H]1O [Treprostinil]
IC50 (PPARG): 69 ± 17.5 µM | IC50 (μM):mean ± SD (PPARG): micromolar concentration range

CCN(CC)CC(=O)OCC(=O)[C@@]1(O)CC[C@H]2[C@@H]3CCC4=CC(=O)CC[C@]4(C)[C@H]3[C@@H](O)C[C@@]21C [Hydrocortamate]
IC50 (Enpp2; [1]): 218 ± 6.4 µM

CC(C)C[C@H](NC(=O)[C@H](CCc1ccccc1)NC(=O)CN1CCOCC1)C(=O)N[C@@H](Cc1ccccc1)C(=O)N[C@@H](CC(C)C)C(=O)[C@@]1(C)CO1 [Carfilzomib]
IC50 (REN): 22 ± 6.4 µM

CN[C@H](CC(C)C)C(=O)N[C@H]1C(=O)N[C@@H](CC(N)=O)C(=O)N[C@H]2C(=O)N[C@H]3C(=O)N[C@H](C(=O)N[C@H](C(=O)O)c4cc(O)cc(O)c4-c4cc3ccc4O)[C@H](O)c3ccc(c(Cl)c3)Oc3cc2cc(c3O[C@@H]2O[C@H](CO)[C@@H](O)[C@H](O)[C@H]2O[C@H]2C[C@](C)(N)[C@H](O)[C@H](C)O2)Oc2ccc(cc2Cl)[C@H]1O [Vancomycin]
IC50 (Enpp2): 68.5 ± 7 µM

CC(=O)OCC(=O)NCCCOc1cccc(CN2CCCCC2)c1 [Roxatidine acetate]
IC50 (Faah): 34.5 ± 1.5 µM

C/C(=C\C(=O)OCCCCCCCCC(=O)O)C[C@@H]1OC[C@H](C[C@@H]2O[C@H]2[C@@H](C)[C@H](C)O)[C@@H](O)[C@H]1O [Mupirocin]
IC50 (PTGS2): 123 ± 7.4 µM

Pasireotide
IC50 (Enpp2; [1]): 73.3 ± 9.7 µM

Cetrorelix (AFASYRLRPA)
IC50 (REN): 156 ± 3.7 µM

CC[C@H](C)C(=O)O[C@H]1C[C@H](O)C=C2C=C[C@H](C)[C@H](CC[C@@H](O)C[C@@H](O)CC(=O)O)[C@H]21 [Pravastatin]
IC50 (PTGS2): 199 ± 12.3 µM

CC/C=C\C/C=C\C/C=C\CCCCCCCC(=O)O [Alpha-linolenic acid]
IC50 (Faah): 43.9 µM and 53.9 µM

CC(C)(C)NC(=O)[C@@H]1C[C@@H]2CCCC[C@@H]2CN1C[C@@H](O)[C@H](Cc1ccccc1)NC(=O)[C@H](CC(N)=O)NC(=O)c1ccc2ccccc2n1 [Saquinavir]
IC50 (REN): 69.1 ± 4.2 µM

Cc1cccc(C)c1OCC(=O)N[C@@H](Cc1ccccc1)[C@@H](O)C[C@H](Cc1ccccc1)NC(=O)[C@H](C(C)C)N1CCCNC1=O [Lopinavir]
IC50 (REN): 49.3 ± 10.3 µM

Felypressin (CFFQNCPKG)
IC50 (REN): 4.5 ± 7.1 µM
